Results taken from ChEMBL document CHEMBL3046958, “Synthesis and Evaluation of Homologous Analogs of Anticonvulsant 5-Substituted 3,3-Diethyl-4,5-Dighdro-2(3H)-Furanones” (Med Chem Res, 2005).
Active and inactive are the calls of the source. The calls are words filed in the database; no cut-off is given here.

Experiments:
Mus musculus [1] = assay: Anticonvulsant activity in Mus musculus CF1 (mouse) assessed as protection against subcutaneous pentylenetetrazol-induced seizures at 100 to 300 mg/kg; format: functional, organism-based
Mus musculus [2] = assay: Anticonvulsant activity in Mus musculus CF1 (mouse) assessed as protection against maximal electroshock-induced seizures at 100 to 300 mg/kg measured after 0.5 hr; format: functional
Mus musculus [3] = assay: Neurotoxicity in Mus musculus CF1 (mouse) at 300 mg/kg by rotorod test; format: toxicity, organism-based; set-up: dose 300 mg/kg; conditions: in vivo
[4] = (§1) Neurotoxicity in Mus musculus CF1 (mouse) at 100 to 300 mg/kg by rotorod test; format: toxicity, organism-based; set-up: dose 100-300 mg/kg; conditions: CF1, mouse, in vivo
Mus musculus [5] = assay: Anticonvulsant activity in Mus musculus CF1 (mouse) assessed as protection against maximal electroshock-induced seizures at 100 to 300 mg/kg measured after 4 hr; format: functional
Mus musculus [6] = assay: Anticonvulsant activity in Mus musculus CF1 (mouse) assessed as protection against subcutaneous pentylenetetrazol-induced seizures at 300 mg/kg; format: functional, organism-based; set-up: dose 300 mg/kg
[7] = target: GABA-A receptor; agonist GABA site (Homo sapiens) (UniProt P14867+P47870+P28472+P48169+P34903+P18505+P47869+P31644+Q16445); assay: Displacement of [3H]TBOB from GABAA receptor (unknown origin) at 10 uM; format: protein-complex assay
Mus musculus [8] = assay: as §1; format: toxicity, organism-based; set-up: dose 100-300 mg/kg; conditions: mouse, in vivo
Mus musculus [9] = assay: Anticonvulsant activity in Mus musculus CF1 (mouse) assessed as protection against subcutaneous pentylenetetrazol-induced seizures; format: functional
Mus musculus [10] = assay: Anticonvulsant activity in Mus musculus CF1 (mouse) assessed as protection against maximal electroshock-induced seizures at 300 mg/kg; format: functional, organism-based; set-up: dose 300 mg/kg

Structure (SMILES): CCC1(CC)CC(CCOC(=O)c2ccc(Br)cc2)OC1=O (centres undefined)
- Activity (Mus musculus [1]): inactive
- Activity (Mus musculus [2]): inactive
- Activity (Mus musculus [3]): Toxic

Structure (SMILES): CCC1(CC)CC(CCNC(=O)c2ccc(C)cc2)OC1=O (centres undefined)
- Activity (Mus musculus [1]): inactive
- Activity (Mus musculus [2]): inactive

Structure (SMILES): CCC1(CC)CC(CNC(=O)c2ccc(Br)cc2)OC1=O (centres undefined)
- TD50 [4]: 285 mg/kg
- ED50 (Mus musculus [2]; CF1, 0.5 h, dose mg/kg 100-300): 89.9 mg/kg
- ED50 (Mus musculus [5]; CF1, 4 h, dose mg/kg 100-300): 89.9 mg/kg

Structure (SMILES): CCC1(CC)CC(CCOC(=O)c2ccc(C)cc2)OC1=O (centres undefined)
- Activity (Mus musculus [1]): inactive
- Activity (Mus musculus [6]): Active
- Activity (Mus musculus [2]): inactive

Structure (SMILES): CCC1(CC)CC(COC(=O)c2ccccc2)OC1=O (centres undefined)
- inhibition [7]: 12.5%
- Activity (Mus musculus [1]): inactive
- Activity (Mus musculus [8]): Non-toxic
- Activity (Mus musculus [2]): inactive
- Activity (Mus musculus [5]): inactive

Structure (SMILES): CCC(=O)OCC1CC(CC)(CC)C(=O)O1 (centres undefined)
- Activity (Mus musculus [1]): inactive
- Activity (Mus musculus [8]): Non-toxic
- Activity (Mus musculus [2]): inactive
- Activity (Mus musculus [5]): inactive

Structure (SMILES): CCC1(CC)CC(COC(=O)c2ccc(C)cc2)OC1=O (centres undefined)
- Activity (Mus musculus [1]): inactive
- Activity (Mus musculus [8]): Non-toxic
- Activity (Mus musculus [2]): inactive
- Activity (Mus musculus [5]): inactive

Structure (SMILES): CCC1(CC)CC(CCOC(=O)c2ccc(OC)cc2)OC1=O (centres undefined)
- Activity (Mus musculus [1]): inactive
- Activity (Mus musculus [2]): inactive

Structure (SMILES): CCC1(CC)CC(COC(=O)c2ccc(OC)cc2)OC1=O (centres undefined)
- Activity (Mus musculus [8]): Non-toxic
- Activity (Mus musculus [2]): inactive
- Activity (Mus musculus [5]): inactive
- Activity (Mus musculus [9]): 300 mg/kg

Structure (SMILES): CCC1(CC)CC(CO)OC1=O (centres undefined)
- inhibition [7]: 9.1%

Structure (SMILES): CCC1(CC)CC(CCNC(=O)c2ccc(Br)cc2)OC1=O (centres undefined)
- Activity (Mus musculus [1]): inactive
- Activity (Mus musculus [2]): inactive

Structure (SMILES): CCC1(CC)CC(CCNC(=O)c2ccc(OC)cc2)OC1=O (centres undefined)
- Activity (Mus musculus [1]): inactive
- Activity (Mus musculus [2]): inactive

Structure (SMILES): CCCCCCCC(=O)NCCC1CC(CC)(CC)C(=O)O1 (centres undefined)
- Activity (Mus musculus [1]): inactive
- Activity (Mus musculus [2]): inactive

Structure (SMILES): CCCCCCCC(=O)OCC1CC(CC)(CC)C(=O)O1 (centres undefined)
- Activity (Mus musculus [1]): inactive
- Activity (Mus musculus [8]): Non-toxic
- Activity (Mus musculus [2]): inactive
- Activity (Mus musculus [5]): inactive

Structure (SMILES): CCC1(CC)CC(COC(=O)c2ccc(Br)cc2)OC1=O (centres undefined)
- Activity (Mus musculus [1]): inactive
- Activity (Mus musculus [8]): Non-toxic
- Activity (Mus musculus [2]): inactive
- Activity (Mus musculus [5]): inactive

Structure (SMILES): CCC(=O)OCCC1CC(CC)(CC)C(=O)O1 (centres undefined)
- Activity (Mus musculus [1]): inactive
- Activity (Mus musculus [2]): inactive

Structure (SMILES): CCC(=O)NCCC1CC(CC)(CC)C(=O)O1 (centres undefined)
- inhibition [7]: 3.62%
- Activity (Mus musculus [1]): inactive
- Activity (Mus musculus [2]): inactive

Structure (SMILES): CCC1(CC)CC(CCNC(=O)c2ccccc2)OC1=O (centres undefined)
- inhibition [7]: 0.29%
- Activity (Mus musculus [1]): inactive
- Activity (Mus musculus [2]): inactive
- Activity (Mus musculus [10]): Active

Structure (SMILES): CCCCCCCC(=O)OCCC1CC(CC)(CC)C(=O)O1 (centres undefined)
- Activity (Mus musculus [1]): inactive
- Activity (Mus musculus [2]): inactive

Structure (SMILES): CCC1(CC)CC(CCOC(=O)c2ccccc2)OC1=O (centres undefined)
- inhibition [7]: 3.86%
- Activity (Mus musculus [1]): inactive
- Activity (Mus musculus [2]): inactive
